Values quoted from earlier work as cited in patent US7612172B2, “Nucleic acids and corresponding proteins entitled 282P1G3 useful in treatment and detection of cancer” (Agensys, Inc., priority 2002, dated 2009).

Key:
T helper lymphocytes = conditions: regardless of HLA type
[1] = tested on: LAGE-I tumor specific gene; conditions: lymphoblastoid cells

binding to HLA-DR alleles (HLA-DR alleles)	Compound	stimulation of T helper lymphocyte response (T helper lymphocytes)	expression of the LAGE-I tumor specific gene [1]
bind to most HLA-DR alleles	aKXVAAWTLKAa	stimulate the response of T helper lymphocytes from most individuals	
	Nc1ncn([C@H]2C[C@H](O)[C@@H](CO)O2)c(=O)n1 [deoxy-azacytidine]		induced
